Patent US20180064153A1, “Methods of Protecting Against Brain Injury” (priority 2016, published 2018)

Tested on: rats exposed to a low-pressure blast wave
Conditions: 30 days supplementation, 33/49

SMILES: NCCC(=O)O [BA, beta-alanine]
- prevalence of well-adapted animals: 67%
